Like-named read-outs stand apart in the source and are kept apart here.
What was measured:
[1] = tested on: gastric acid secretion; assay: Inhibition of gastric acid secretion in meal-stimulated Pavlov pouch dog; assay type: in vivo, beagle dogs; conditions: 3 mg/kg, four-hour period
Method: Adult female beagle dogs weighing 6 to 10 kilograms were obtained from Laboratory Research Enterprises (Kalamazoo, Mich.) or from Hazelton Research Animals (Cumberland, Va.). Surgical implantation of a Thomas-type gastric cannula into an innervated Pavlov pouch of each dog was performed by the method reported by L. Burrows et al., J. Surgical Res., 4, 147 (1964). After recovery from surgery, the dogs were trained to stand quietly, fully conscious, in Pavlov-type dog restraining slings. All dogs were deprived of food, but not water, for 24 hours prior to each assay. Basal acid secretion was measured by collecting from the cannulas for 30 minutes before dosing with a test compound. Solutions of the test compounds in iso-osmotic phosphate buffer (pH 7.4) were given either intravenously or directly into the Pavlov pouch. After 30 minutes the pouch was drained. The dogs were then fed 320 grams of dog food and gastric acid secretions were collected each half hour for four hours. Controls were determined in the same way except that only food (i.e., no test compound) was administered.
Data were analyzed for three different variables: volume of gastric juice, acid concentration, and total acid output. Percent inhibition for the four-hour experimental period was determined for each parameter by comparison with 3 to 4 controls. Estimates of ED50 were determined from dose response curves.

[2] = tested on: gastric acid secretion; assay: Inhibition of gastric acid secretion in gastric fistula beagle dogs (histamine-stimulated); assay type: in vivo; conditions: Canis lupus familiaris, 4 h, histamine-stimulated, four-hour period, read-out: Gastric-Fistula Beagle % Inhibition (3 mg/kg dose)
Method in brief: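 Conscious, 18 h-fasted female beagles with gastric (or duodenal) cannulas received compound i.v., i.g. or i.d. after a 30-min basal period, then 4 h i.v. histamine dihydrochloride at 15 mcg/kg/h. Gastric volume, acid concentration and total acid output collected every 30 min; percent inhibition versus controls, ED50 from dose-response curves.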

[3] = tested on: HCMV (strain AD169); assay: Antiviral assay: HCMV antigen ELISA in infected human foreskin fibroblasts (MRHF); assay type: cell-based, human cytomegalovirus; conditions: Human betaherpesvirus 5, Fibroblast; MRHF cells, HCMV AD169, moi 0.2, 96 hours; read-out: HCMV cell EC50
From the text: These complimentary assays tested the ability of a compound to inhibit the production of new virus and the toxicity of the compound to the host cells. It was important that both assays be performed simultaneously in order to compare the results directly since, toxicity may indirectly reduce viral yield.
Viral yield was estimated by measuring the amount of a viral antigen produced 4 days post infection with a monoclonal antibody to an abundant “immediate early” viral protein. An enzyme-linked (horseradish peroxidase) secondary antibody specific to the primary (mouse) antibody was used to measure the amount of viral antigen. Test compounds were diluted to 2-times the desired final concentration in DMEM+5% FBS. One hundred microliters of this solution was placed in each well of a 96-well plate. This was performed once for the antiviral 96-well plate and again for a cytotoxicity plate. Two controls were also included for both plates; a no drug control and a ganciclovir control. Ganciclovir was included because it has known antiviral activity for HCMV. All cells were prepared by harvesting human foreskin fibroblasts, MRHF, with trypsin and re-suspending at a concentration of 5×10^5 cells per ml in DMEM. Infected cells were prepared by infecting these with HCMV (strain AD169) at a multiplicity of infection=0.2. One hundred microliters of uninfected cells (5×10^4 cells) were added to the appropriate wells of the cytotoxicity plate. In a similar manner 100 μl of infected cells (5×10^4 cells) were added to the appropriate wells of the antiviral plate. Additionally, uninfected cells not treated with test compound were included as controls on the antiviral plate. Plates were incubated for 96 hours at 37° C. in 5% CO2 atmosphere and processed to measure the amount of viral antigen and toxicity.
The following was performed on the antiviral plate only. Media was removed and cells were fixed with 1:1 acetone:methanol for 15 minutes at −20° C. Fixative was removed and cells were washed once with PBS containing 0.05% Tween20. In order to block nonspecific binding of antibodies each well was incubated with PBS containing 3% (w/v) bovine serum albumin (BSA) for 1 hour at 22° C. The blocking solution was removed and the cells were washed once with PBS containing 0.05% Tween20 before incubating with 1:100 dilution of primary antibody in PBS containing 3% BSA for 2 hours at 22° C. The primary antibody was a monoclonal antibody (mouse source) specific to the immediate early nuclear antigen of HCMV and was commercially available (Dupont). The 10 antibody solution was removed and the plate was rinsed 5 times with PBS containing 1% (v/v) Triton X-100 (PBST) before incubating with secondary antibody diluted 1:1000 in PBS containing 3% BSA for 2 hours at 22° C. The secondary antibody (goat source) recognized the murine-specific determinants of the 1° antibody and was covalently linked to horseradish peroxidase (Sigma). The plate was rinsed 5 times with PBST and once with deionized water before adding 100 μl TMB substrate solution and incubating 30 minutes at 22° C. The reaction was stopped by adding 100 μL of phosphoric acid and the OD at 450 nm recorded. TMB (3,3′,5,5′ tetramethylbenzidine) was the substrate for the horseradish peroxidase linked to the 2° antibody. […] Antiviral activity was calculated by comparing the amount of viral antigen produced in drug treated wells with that produced in wells absent of drug.

| melting point | SMILES | Pavlov-Pouch Dog % Inhibition (dose (mg/kg)) [1] | inhibition in vivo at 3 mg/kg ([2]; iv, 3 mg/kg i.v.) | EC50 [3] | inhibition in vivo at 3 mg/kg ([2]; intraduodenal, 3 mg/kg i.d.) |
| --- | --- | --- | --- | --- | --- |
| 152 to 153 °C | COc1ccc(N)c(C[S+]([O-])c2nc3ccccc3[nH]2)c1 (stereo not shown) [Example 20, 2-[(1H-Benzimidazol-2-ylsulfinyl)methyl]-4-methoxybenzenamine] | 22 (3 mg/kg) % | 37% | – | – |
| 170 to 171 °C | Cc1ccc2[nH]c([S+]([O-])Cc3ccccc3N)nc2c1 (stereo not shown) [Example 41, 2-[[(5-Methyl-1H-benzimidazol-2-yl)sulfinyl]-methyl]benzenamine] | – | – | 59 µM | – |
| 165 to 166 °C | Nc1ccccc1C[S+]([O-])c1nc2cc(Cl)ccc2[nH]1 (stereo not shown) [Example 43, 2-[[(5-Chloro-1H-benzimidazol-2-yl)sulfinyl]-methyl]benzenamine] | – | – | 23 µM | – |
| – | Cc1ccc(C[S+]([O-])c2nc3ccccc3[nH]2)c(N)c1C (stereo not shown) [Example 53, 2-[(1H-Benzimidazol-2-ylsulfinyl)methyl]-5,6-dimethylbenzenamine ¼ hydrate] | – | – | 13 µM | 79% |
| 149 to 155 °C | COc1ccc2[nH]c([S+]([O-])Cc3c(N)cc(C)c(OC)c3C)nc2c1 (stereo not shown) [Example 78, 2-[[(5-Methoxy-1H-benzimidazol-2-yl)sulfinyl]methyl]-4-methoxy-3,5-dimethylbenzenamine] | – | – | 22 µM | 31% |
| – | COc1ccc2[nH]c([S+]([O-])Cc3ncc(C)c(OC)c3C)nc2c1 (stereo not shown) [omeprazole, reference compound] | – | – | 93 µM | – |

Reference: US6906078B2, “Method of using (H+/K+) ATPase inhibitors as antiviral agents” (Pharmacia Corporation, priority 1994, dated 2005)
